Earlier results in article PMC9516332 (Frontiers in Oncology, 2022).
Read-outs that look alike come from different tables or passages of the source.

Legend:
Conditions in all cases: cited from earlier work
[1] = target: T1, panel of 255 wild-type kinases (Homo sapiens, UniProt P42681)
T1 sequence (P42681 1-527): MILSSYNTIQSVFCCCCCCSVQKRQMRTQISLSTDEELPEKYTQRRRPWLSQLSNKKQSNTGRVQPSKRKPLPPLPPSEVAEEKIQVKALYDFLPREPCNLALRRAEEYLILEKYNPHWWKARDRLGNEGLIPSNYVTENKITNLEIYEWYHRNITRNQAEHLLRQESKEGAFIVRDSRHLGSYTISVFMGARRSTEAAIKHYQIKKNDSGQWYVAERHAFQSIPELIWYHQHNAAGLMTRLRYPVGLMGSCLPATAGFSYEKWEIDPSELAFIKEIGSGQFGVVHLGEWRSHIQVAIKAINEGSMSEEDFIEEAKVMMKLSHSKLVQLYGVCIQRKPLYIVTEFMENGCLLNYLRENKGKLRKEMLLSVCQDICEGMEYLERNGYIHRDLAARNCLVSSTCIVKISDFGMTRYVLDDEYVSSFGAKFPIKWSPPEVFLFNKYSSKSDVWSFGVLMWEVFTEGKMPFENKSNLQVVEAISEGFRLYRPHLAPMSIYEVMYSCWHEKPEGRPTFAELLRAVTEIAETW

[2] = target: T2, panel of 255 wild-type kinases (Homo sapiens, UniProt Q14164)
T2 sequence (Q14164 1-716): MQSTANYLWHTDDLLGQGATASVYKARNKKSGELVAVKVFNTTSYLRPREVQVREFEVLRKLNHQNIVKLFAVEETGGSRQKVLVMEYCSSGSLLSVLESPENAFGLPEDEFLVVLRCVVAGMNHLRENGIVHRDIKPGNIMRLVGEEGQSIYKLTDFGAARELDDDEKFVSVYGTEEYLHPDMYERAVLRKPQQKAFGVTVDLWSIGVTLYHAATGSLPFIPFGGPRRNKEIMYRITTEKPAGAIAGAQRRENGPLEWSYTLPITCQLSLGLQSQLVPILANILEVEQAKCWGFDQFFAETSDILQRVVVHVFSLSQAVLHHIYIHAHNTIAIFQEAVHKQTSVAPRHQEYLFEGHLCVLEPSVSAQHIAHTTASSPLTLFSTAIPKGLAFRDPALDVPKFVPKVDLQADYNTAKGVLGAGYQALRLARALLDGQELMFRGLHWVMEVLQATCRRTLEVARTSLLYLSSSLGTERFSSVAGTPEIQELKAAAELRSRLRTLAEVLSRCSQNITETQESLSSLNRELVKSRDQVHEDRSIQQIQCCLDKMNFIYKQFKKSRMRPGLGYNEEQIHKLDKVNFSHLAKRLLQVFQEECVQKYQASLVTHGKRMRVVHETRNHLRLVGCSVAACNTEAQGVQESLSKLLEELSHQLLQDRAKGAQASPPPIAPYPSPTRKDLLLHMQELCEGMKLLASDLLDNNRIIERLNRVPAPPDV

[3] = target: T3, panel of 255 wild-type kinases (Homo sapiens, UniProt Q8TF76)
T3 sequence (Q8TF76 1-798): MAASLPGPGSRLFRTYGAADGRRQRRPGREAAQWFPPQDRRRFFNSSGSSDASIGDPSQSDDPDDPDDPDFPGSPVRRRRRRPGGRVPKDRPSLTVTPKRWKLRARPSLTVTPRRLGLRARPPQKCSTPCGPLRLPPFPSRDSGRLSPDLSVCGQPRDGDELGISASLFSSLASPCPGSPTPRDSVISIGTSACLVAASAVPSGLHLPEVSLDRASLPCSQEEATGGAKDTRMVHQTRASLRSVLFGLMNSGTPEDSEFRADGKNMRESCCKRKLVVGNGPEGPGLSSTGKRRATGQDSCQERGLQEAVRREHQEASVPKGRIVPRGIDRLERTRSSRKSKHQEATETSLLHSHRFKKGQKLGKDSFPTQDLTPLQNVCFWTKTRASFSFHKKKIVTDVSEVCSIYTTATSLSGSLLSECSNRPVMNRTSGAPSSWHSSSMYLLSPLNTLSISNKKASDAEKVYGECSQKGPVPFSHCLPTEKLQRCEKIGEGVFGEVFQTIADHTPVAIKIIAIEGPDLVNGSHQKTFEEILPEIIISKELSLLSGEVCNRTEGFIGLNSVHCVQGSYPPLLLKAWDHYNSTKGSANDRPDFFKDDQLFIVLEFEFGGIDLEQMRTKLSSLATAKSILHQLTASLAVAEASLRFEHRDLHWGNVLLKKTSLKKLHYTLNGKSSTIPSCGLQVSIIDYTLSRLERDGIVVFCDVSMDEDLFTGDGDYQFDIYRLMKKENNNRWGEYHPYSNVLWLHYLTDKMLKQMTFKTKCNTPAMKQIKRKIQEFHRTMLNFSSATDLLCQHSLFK

[4] = target: panel of 255 wild-type kinases (Homo sapiens, UniProt Q96RG2)
[5] = target: T4, panel of 255 wild-type kinases (Homo sapiens, UniProt Q9BXA7)
T4 sequence (Q9BXA7 1-367): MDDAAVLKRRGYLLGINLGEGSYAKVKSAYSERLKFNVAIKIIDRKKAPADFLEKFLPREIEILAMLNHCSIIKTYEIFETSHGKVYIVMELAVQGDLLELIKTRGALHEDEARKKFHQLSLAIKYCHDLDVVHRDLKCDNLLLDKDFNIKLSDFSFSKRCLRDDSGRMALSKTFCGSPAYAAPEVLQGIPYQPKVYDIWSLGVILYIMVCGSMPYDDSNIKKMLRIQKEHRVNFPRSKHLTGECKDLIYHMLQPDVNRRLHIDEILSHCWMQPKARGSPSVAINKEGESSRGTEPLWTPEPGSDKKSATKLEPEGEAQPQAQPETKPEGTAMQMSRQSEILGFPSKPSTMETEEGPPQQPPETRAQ

[6] = target: panel of 255 wild-type kinases (Homo sapiens, UniProt Q9BYP7)
[7] = kinase TXK, 1 µmol/L single concentration, ref DOI: 10.1158/1535-7163.MCT-18-0877
[8] = kinase IKKε, 1 µmol/L single concentration, ref DOI: 10.1158/1535-7163.MCT-18-0877
[9] = kinase Haspin, 1 µmol/L single concentration, ref DOI: 10.1158/1535-7163.MCT-18-0877
[10] = PASK, 1 µmol/L single concentration, ref DOI: 10.1158/1535-7163.MCT-18-0877
[11] = kinase TSSK1, 1 µmol/L single concentration, ref DOI: 10.1158/1535-7163.MCT-18-0877
[12] = kinase WNK3, 1 µmol/L single concentration, ref DOI: 10.1158/1535-7163.MCT-18-0877
[13] = kinase TXK, 1 µmol/L single concentration, ref DOI: 10.1371/journal.pone.0092146
[14] = kinase IKKε, 1 µmol/L single concentration, ref DOI: 10.1371/journal.pone.0092146
[15] = kinase Haspin, 1 µmol/L single concentration, ref DOI: 10.1371/journal.pone.0092146
[16] = PASK, 1 µmol/L single concentration, ref DOI: 10.1371/journal.pone.0092146
[17] = kinase TSSK1, 1 µmol/L single concentration, ref DOI: 10.1371/journal.pone.0092146
[18] = kinase WNK3, 1 µmol/L single concentration, ref DOI: 10.1371/journal.pone.0092146

Compound | %-inhibition at 1 µmol/L, TXK [1, 7] | %-inhibition at 1 µmol/L, IKKε [2, 8] | %-inhibition at 1 µmol/L, Haspin [3, 9] | %-inhibition, PASK [4, 10] | %-inhibition at 1 µmol/L, TSSK1 [5, 11] | %-inhibition at 1 µmol/L, WNK3 [6, 12] | %-inhibition at 1 µmol/L, TXK [1, 13] | %-inhibition at 1 µmol/L, IKKε [2, 14] | %-inhibition at 1 µmol/L, Haspin [3, 15] | %-inhibition, PASK [4, 16] | %-inhibition at 1 µmol/L, TSSK1 [5, 17] | %-inhibition at 1 µmol/L, WNK3 [6, 18] | also measured
O=C(c1ccc(F)c(F)c1Nc1ccc(I)cc1F)N1CC(O)([C@@H]2CCCCN2)C1 [cobimetinib] | 0.165% | -3.35% | 8% | 1.07% | 7% | 1.84% | – | – | – | – | – | – | –
CO[C@@H]1[C@H](N(C)C(=O)c2ccccc2)C[C@H]2O[C@]1(C)n1c3ccccc3c3c4c(c5c6ccccc6n2c5c31)C(=O)NC4 [midostaurin] | 25% | 97% | 31% | 6% | 95% | 5.27% | – | – | – | – | – | – | –
C=CC(=O)N1CCC[C@@H](n2nc(-c3ccc(Oc4ccccc4)cc3)c3c(N)ncnc32)C1 [ibrutinib] | 98% | -0.696% | 2.53% | -0.0437% | 9% | 7% | – | – | – | – | – | – | –
C[C@@H](Oc1cc(-c2cnn(C3CCNCC3)c2)cnc1N)c1c(Cl)ccc(F)c1Cl [crizotinib] | – | – | – | – | – | – | 39% | 7.49% | 7% | 1% | 21% | -8% | –
Cc1cc(Nc2ncc(Cl)c(Nc3ccccc3S(=O)(=O)C(C)C)n2)c(OC(C)C)cc1C1CCNCC1 [ceritinib] | 1.15% | 6.42% | 7% | 1.28% | 101% | 0.598% | – | – | – | – | – | – | –
CC(C)(C)c1nc(-c2cccc(NS(=O)(=O)c3c(F)cccc3F)c2F)c(-c2ccnc(N)n2)s1 [dabrafenib] | – | – | – | – | – | – | 18% | 15% | 9% | 1.12% | 8% | 1.34% | –
C=CC(=O)Nc1cc(Nc2nccc(-c3cn(C)c4ccccc34)n2)c(OC)cc1N(C)CCN(C)C [osimertinib] | 82% | 8% | 14% | 2.58% | 76% | 1.5% | – | – | – | – | – | – | –
CC#CC(=O)N1CCC[C@H]1c1nc(-c2ccc(C(=O)Nc3ccccn3)cc2)c2c(N)nccn12 [acalabrutinib] | 68% | 1.46% | 5.31% | -5.37% | -7% | -0.259% | – | – | – | – | – | – | –
COc1cc(N2CCC(N3CCN(C)CC3)CC2)ccc1Nc1ncc(Cl)c(Nc2ccccc2P(C)(C)=O)n1 [brigatinib] | – | – | – | – | – | – | – | – | – | – | – | – | %-inhibition at 1 µmol/L, TXK [1]: 76%; %-inhibition at 1 µmol/L, IKKε [2]: 24%; %-inhibition at 1 µmol/L, Haspin [3]: 9%; %-inhibition, PASK [4]: -5%; %-inhibition at 1 µmol/L, TSSK1 [5]: 101%; %-inhibition at 1 µmol/L, WNK3 [6]: 1%
CCCS(=O)(=O)Nc1ccc(F)c(C(=O)c2c[nH]c3ncc(-c4ccc(Cl)cc4)cc23)c1F [vemurafenib] | – | – | – | – | – | – | 5% | -9% | -3% | 2.35% | -4% | 53% | –
CCc1cc2c(cc1N1CCC(N3CCOCC3)CC1)C(C)(C)c1[nH]c3cc(C#N)ccc3c1C2=O [alectinib] | 2.46% | 1.59% | 8% | -2.6% | 22% | 0.437% | – | – | – | – | – | – | –
CC(=O)Nc1cccc(-n2c(=O)n(C3CC3)c(=O)c3c(Nc4ccc(I)cc4F)n(C)c(=O)c(C)c32)c1 [trametinib] | – | – | – | – | – | – | -4.66% | -3.63% | 5% | -0.187% | -5% | 1% | –
